Results on two substances are retold here after US20250064740A1, “MULTI-VESICULAR LIPID NANOPARTICLE TOLEROGENIC VACCINES FOR INDUCTION OF SYSTEMIC IMMUNE TOLERANCE IN VIVO” (KARMA BIOTECHNOLOGIES, priority 2022, published 2025).

For test [1], the system named is Jurkat cells. The experiment in a line: SNIPR uptake/transfection of a T cell line with endocytosis inhibitors. Type of test: cell-based. Conditions: MbC 15 uM, 1 h pretreatment.
Test [2] relates to HepG2 cells. Kind of test: SNIPR [pEGFP] transfection of a liver cell line with caveolin inhibitor. Type of test: cell-based. The following applies: MbC 15 uM, 1 h pretreatment, 48 h.
Test [3] has as its system murine bone marrow-derived macrophages. The experiment in a line: In vitro immunogenicity: TNFa release by ELISA. Type of test: cell-based, mouse. The following applies: positive controls. An excerpt:
TNFa release was quantitated by ELISA. Bar charts show mean TNFa release per treatment group (n=3 replicates per treatment group). Error bars indicate SEM. Filled circles indicate mean TNFa release for each individual replicate for each treatment group. Colors of filled circles indicate treatment group.

With Methyl-beta-cyclodextrin [MbC], in test [1], the “Transfection of a T cell line by pDNA-loaded SNIPR nanoparticles in presence of inhibitor” value was “abrogated”. Further, the “Transfection of a liver cell line by pDNA-loaded SNIPR nanoparticles in presence of inhibitor” value in test [2] is given as “abrogated”. Regarding lipopolysaccharide [LPS], in test [3], the TNFa release result was “strongly elicited”.
